From BindingDB's records for doi:10.1021/jm070166b (Merck Research Laboratories, 2007)

Test: Antagonist activity against human CCR2 receptor in human monocytes assessed as inhibition of chemotaxis

Question: Which IC50 does the source give for `C[C@H]1CN([C@@H]2CC[C@H](C(=O)NCc3cc(C(F)(F)F)cc(C(F)(F)F)c3)C2)CC[C@@]12C=Cc1ccccc12` [(1S,3R)-N-{[3,5-bis(trifluoromethyl)phenyl]methyl}-3-[(1R,5'R)-5'-methylspiro[indene-1,4'-piperidine]-1'-yl]cyclopentane-1-carboxamide] here?
Answer: 57 nM
